Data reported in a melting point compilation (Tetko et al.; mined from patent text by program, amines drawn as free bases though some values may be those of a salt).

| melting point | SMILES |
| --- | --- |
| 158 to 160 °C | C[C@@H](n1cnc2cc(C(F)(F)F)ccc2c1=O)[C@](O)(Cn1cncn1)c1ccc(Cl)cc1Cl |
| 57 to 61 °C | O=C(NC/C=C\COc1cc(CN2CCCC2)ccn1)c1cn[nH]c1 |
| > 300 °C | O=c1ccn(-c2ccc3[nH]c(=O)c(=O)[nH]c3c2)cc1 |
| 70 to 71 °C | O=C(O)c1ccc(CCCOCCCCCCBr)cc1 |
| 162 to 163 °C | CCN1CC(=O)N(c2cc(Oc3ncccc3C(F)(F)F)c(Cl)cc2F)C1=O |
| 117 to 118 °C | COc1ccc(-c2ccc(C(C)=O)cc2)cc1OC1CCCC1 |
| 243 to 244 °C | NC(=O)c1ccc2c(c1)C(=O)C1(CC1)O2 |
| 113 to 114 °C | Cn1c(C(F)(F)F)ccc(-c2cc(NS(C)(=O)=O)c(Cl)cc2F)c1=O |
| 193 to 196 °C | O=C1Oc2cc(O)ccc2CN1C1CCCCC1 |
| 130 to 132 °C | CCCc1nc2c(N)nc(C)c(C)c2n1CCCCCS(=O)(=O)c1ccc(F)cc1 |
| 115 to 118 °C | CN1CCCCCC1=NC(=O)Nc1cccc(Cl)c1 |
| 134 to 136 °C | C/C(=C\C=C\C#N)c1ccc(OCc2nc(-c3ccccc3)oc2C)cc1 |
| 272 to 276 °C | O=C(O)c1cn(-c2nnc(C(F)(F)F)s2)c2cc(F)c(F)cc2c1=O |
| 34 to 38 °C | C[Si](C)(C)OCCCc1c[nH]c2ccccc12 |
| 135 to 136 °C | NC(=O)N(O)Cc1ccc(OCCc2noc(-c3ccccc3)n2)cc1 |
| 142 °C | Cc1ccc(S(=O)(=O)OC[C@H](CNC(=O)c2ccc(Cl)s2)OC(=O)Nc2ccc(N3CCOCC3=O)cc2)cc1 |
| 190 to 193 °C | CC[C@H](C)CNC(=O)[C@@H](C[C@H](O)[C@H](CC1CCCCC1)NC(=O)[C@H](Cc1cscn1)NC(=O)OC(C)(C)C)C(C)(C)O |
| 234 to 236 °C | CC(=O)Oc1ccc(-n2cc(C(=O)OC3CCc4ccccc43)c(=O)cc2-c2cc3ccccc3s2)cc1 (centres undefined) |
| 111 to 113 °C | Nc1cc(OCc2ccccc2)c(OCc2ccccc2)cn1 |
| 151 to 153 °C | O=C1c2ccccc2C(=O)N1CCn1ccnc1 |
| 250 to 252 °C | CC(C)n1nc(-c2sc(NC(=O)C3CC3)nc2-c2ccc(F)cc2)ccc1=O |
| 271 to 272 °C | O=[N+]([O-])c1ccc(NN=Cc2cnccn2)nc1 |
| 143 to 145 °C | CC(=O)C(=NNc1ccccc1)C(=O)N(C(C)C)C(C)C |
| 183 to 184 °C | CCCn1nc2c(N)nc3ccccc3c2c1CCCc1cc(C)no1 |
| 188 to 190 °C | CC1(C)OC(=O)Nc2ccc(-c3cccc(CC#N)c3)cc21 |

| melting point | SMILES |
| --- | --- |
| 159 to 162 °C | CC(C)C(NC(=O)N(C)Cc1ccccn1)C(=O)NC(Cc1ccccc1)C(O)C(O)C(Cc1ccccc1)NC(=O)C(NC(=O)N(C)Cc1ccccn1)C(C)C (centres undefined) |
| 202 to 203 °C | Cc1oc(-c2ccccc2)nc1C(=O)COc1ccc(C#N)cc1 |
| > 280 °C | CS(=O)(=O)c1c(C(=O)NN=Cc2nccs2)[nH]c2ccccc12 |
| 193 °C | CN(C)C=NS(=O)(=O)c1ccccc1-c1ccc(Cn2c(-c3ccccc3)nc(Cl)c2C=O)cc1 |
| 195 to 196 °C | Cc1ccc(N2CN(Cc3ccccc3)C3=NN=CC3=C2N)cc1 |
| 189 to 190 °C | CCCCOc1nc(N)c2[nH]c(=O)n(CCCCN(Cc3cccc(CC(=O)O)c3)CC(C)(C)CN(C)C)c2n1 |
| 240 to 244 °C | C=CCc1cc(C2=NNC(=O)CC2)ccc1O |
| 134 to 136 °C | COC(=O)/C=C(\C)CSc1nc(N)cc(Cl)n1 |
| 153 to 155 °C | CCCc1c(SCCCOc2ccc3c(=O)cc(CCC(=O)O)oc3c2CCC)ccc(C(C)=O)c1N |
| 137 to 138 °C | CN(C)C(=O)N(NC(=O)C(F)(F)F)c1ccc(Cl)cc1Cl |
| 186 to 187 °C | Cc1cc(Cl)cc(Cl)c1S(=O)(=O)Nc1nc(CC(=O)N2CCOCC2)c(C)s1 |
| 141 to 143 °C | O=C(CCCN1CCC(Cc2ccccc2)CC1)c1ccc2c(c1)C(=O)c1cc(C(=O)CCCN3CCC(Cc4ccccc4)CC3)ccc1-2 |
| 150 to 152 °C | O=C1c2cc(O)ccc2OCC1Cc1nccs1 (centres undefined) |
| 195 to 196 °C | CC(=O)OCC1OC(n2cnc3c(N)nc(F)nc32)C(OC(C)=O)C1OC(C)=O (centres undefined) |
| 150 to 152 °C | O=C1CCC(N2Cc3c(OCc4cccc(CN5CCN(S(=O)(=O)C(F)(F)F)CC5)c4)cccc3C2=O)C(=O)N1 (centres undefined) |
| 102 to 103 °C | Cn1ccc(S(=O)(=O)NC(C)(C)C)c1C=O |
| 187 to 189 °C | CCOC(=O)c1c(C)nsc1NC(=O)NC |
| 209 to 211 °C | O=C(CC1CCN(CC2CC2)CC1)c1ccc(O)cc1 |
| 143 to 145 °C | CC(=O)C1=C(O)C(=C(C)Nc2ccccc2Cl)C(=O)OC1=O |
| 39.5 to 40 °C | CCCCCCCCCCOc1ccc(Br)cc1OCCCCCCCCCC |
| 201 °C | Brc1ccc2nc(Br)nn2c1 |
| 38 to 40 °C | CC1(C)NC(=O)OC12CCNCC2 |
| 91.9 to 93.6 °C | COc1cccc(CNc2ncnc3c2sc2nc(N(C)C)c4c(c23)C(C)(C)CC4)c1OC |
| 158 °C | COC(=O)CSC1NC(=O)c2sccc2-n2cccc21 (centres undefined) |
| 79 °C | CCOC(=O)C(C)Oc1ccc(N(C)c2cnc3cc(Cl)c(Cl)cc3n2)cc1 (centres undefined) |

| melting point | SMILES |
| --- | --- |
| 93 to 94 °C | CS(=O)(=O)c1ccc(Oc2cc(OCc3cccc(Cl)n3)c3[nH]c(C4=NCC(CCO)S4)cc3c2)cc1 (centres undefined) |
| 144 to 145 °C | CC(Sc1nc2ccccc2s1)C(N)=O (centres undefined) |
| 68 to 71 °C | COC1c2ccccc2CSc2ccc(Br)cc21 (centres undefined) |
| 283 to 287 °C | COc1ccc(-c2cc3ncc(SC)c(O)c3s2)cc1 |
| 145 to 148 °C | COc1ccc(C(=O)Nc2ccccc2)c(C(=O)Cc2ccccn2)c1 |
| 186 to 187 °C | CC(=O)NC[C@H]1CN(c2ccc3c(c2)C[C@@H](C)N3C(=O)COC(C)=O)C(=O)O1 |
| 233 °C | CCOc1nc(NC(C)=O)nc2ccc(Cl)nc12 |
| 184 to 185 °C | COC(=O)C(CCSC)N(C(=O)OC(C)(C)C)C(=O)c1ccc(N)cc1 (centres undefined) |
| 138 to 140 °C | CC(=O)c1cn(S(=O)(=O)c2ccccc2)c2nccc(OCC3CCCCC3)c12 |
| 143 to 145 °C | N#Cc1ccc(-c2ccc(-c3ccc(Br)o3)o2)nc1 |
| 197 to 200 °C | Nc1sc2c(c1C(=O)c1ccc3c(c1)Cc1ccccc1-3)CCN(Cc1ccccc1)C2 |
| 174 to 175 °C | COc1cc(OC)nc(NC(=O)N=NS(=O)(=O)C2OCCN2C)n1 (centres undefined) |
| 112 °C | CCC1CC(=O)N(CCc2ccc(N)cc2)N=C1c1ccc(OC)c(OC)c1 (centres undefined) |
| 69 to 74 °C | CCn1c2ccc(C)cc2c2c3ccccc3ccc21 |
| 83 to 85 °C | COc1ccc(C(=O)CSc2ccccc2)cc1 |
| 145 to 150 °C | N#Cc1cc(Oc2ccc(Cl)cc2Cl)c(O)cc1Cl |
| 245 to 247 °C | Clc1cc2nc(-c3csc(Cc4c(Cl)cccc4Cl)n3)[nH]c2cc1Cl |
| 53 to 54 °C | CCC(=NOCc1cccs1)c1cc(Cl)ccc1NS(=O)(=O)C(F)(F)F |
| 263 to 265 °C | CCCCNC1NC(=O)N(c2ccc(O)cc2)C(=O)N1 |
| 147 to 148 °C | N#Cc1c[nH]cc1-c1ccc(Cl)cc1 |
| 94 to 96 °C | CCc1nn(Cc2noc(O)n2)c(CC)c1Oc1cc(Cl)cc(Cl)c1 |
| 151 °C | NS(=O)(=O)c1ccc(-n2nc(C(F)(F)F)cc2-c2ccc(-c3ccco3)cc2)cc1F |
| 240 to 242 °C | Cc1cc(C2(C(F)(F)F)CC(C(F)(F)F)=NO2)ccc1NC(=O)c1cccc(I)c1C(=O)NC(C)C (centres undefined) |
| 112 to 114 °C | C/C(C=O)=C\c1ccc([N+](=O)[O-])cc1 |
| 290 °C | CCOC(=O)c1cnn(C)c1C(=O)Nc1ccn2nc(-c3cccc(F)n3)nc2c1 |

| melting point | SMILES |
| --- | --- |
| 70 to 73 °C | CSc1ccc(-c2ccc(C(F)(F)F)cc2)nc1F |
| 146 °C | CC(=O)Oc1ccc(Oc2ccc(NC(=O)Nc3cc(C(C)(C)C)on3)cc2)cc1 |
| 81 to 82 °C | CCCCCc1ccc(-c2ccc(C(C)=O)cc2)cc1 |
| 68 to 69 °C | CCOP(=O)(OCC)C(Nc1nocc1C)P(=O)(OCC)OCC |
| 65 to 68 °C | CC(C)(C)OC(=O)C(CCCCNC(=O)c1ccc(Cl)c(S(N)(=O)=O)c1)NC1Cc2ccccc2C1 (centres undefined) |
| 138 to 140 °C | CCCn1nc2c(N)nc3ccccc3c2c1CCCc1ccn(Cc2ccccc2)c1 |
| 80 °C | CCCc1c(O)cccc1Oc1ccccc1C(=O)OC |
| 198 °C | O=C(NC(Cc1ccc(OCc2ccc(C(F)(F)F)cc2)cc1)C(=O)O)c1cc2cc(-c3ccc(Cl)cc3)ccc2s1 (centres undefined) |
| 126 to 129 °C | C[C@]12CCC(=O)C=C1CC[C@@H]2c1cn[nH]n1 |
| 191 to 192 °C | O=C(CS(=O)Cc1ccc(Cl)c(Cl)c1)NO (centres undefined) |
| 106 to 108 °C | CCCCOC(=O)CN(Cc1ccccc1OC)S(=O)(=O)c1ccc2c(Cl)cnc(Cl)c2c1 |
| 80 to 85 °C | OC(CCn1cccn1)c1ccc(OCc2ccccc2)cc1 (centres undefined) |
| 85 °C | O=C(Oc1cc(-c2ccccc2)c2ccccc2n1)N1CCCCC1 |
| 119 to 120 °C | CCN1C(=O)c2sccc2N(C)c2ncccc21 |
| 317 to 319 °C | NNC(=S)c1cc(F)c2ncc(C(=O)NCc3ccc(Cl)cc3)c(O)c2c1 |
| 90 °C | O=C(NCc1cccnc1)C1CCCCC1 |
| 233 to 235 °C | CS(=O)(=O)c1cccc(-c2cc(N3CCOCC3)cc(Nc3ccc(OC(F)(F)F)cc3)n2)c1 |
| 100 °C | CCC1(C)CC(S(=O)(=O)C(Cl)(Cl)c2cccc(F)c2)=NO1 (centres undefined) |
| 143 to 144 °C | COC(=O)c1c(-c2cccs2)c2cc(OCc3ccccc3)ccc2c(=O)n1CC(C)C |
| 162 to 164 °C | COc1cc(C(CC(=O)O)N2Cc3ccccc3C2=O)cc(OC)c1OC (centres undefined) |
| 133 °C | Cc1cccc(NC(=O)NCC(=O)N(CC(=O)OC(C)(C)C)c2ccccc2C)c1 |
| 156 to 160 °C | O=C1c2ccccc2N(c2ccccc2)CN1O |
| 206 to 208 °C | Cc1ncccc1CN(CCn1cc(C)c2occc2c1=O)Cc1ccc2c(c1)N(CC(C)C)C(=O)C(C)(C)C(=O)N2 |

| SMILES | melting point |
| --- | --- |
| COC(=O)c1ccc(-n2cc(-c3ccc4c(c3)C(C)(C)CCC4(C)C)cn2)cc1 | 229 to 232 °C |
